Experimental data reported in ChEMBL document CHEMBL5376002, “A Hybrid Antimicrobial Peptide Targeting Staphylococcus aureus with a Dual Function of Inhibiting Quorum Sensing Signaling and an Antibacterial Effect” (J Med Chem, 2023).
≈ marks a conversion by molar mass, not a printed value. Calls of active or inactive are those of the source. The rule behind the calls is not given here. Bridge positions count the residues as written; N and C are the ends. Square brackets hold non-standard residues; d marks the D form. Peptide text beside a SMILES is read from it. Dab = NCC[C@H](N)C(=O)O

Legend:
[1] = tested on: Cell membrane; experiment: Induction of cell membrane damage in Staphylococcus aureus ATCC 6538p assessed as increase in nucleic acid leakage measured up to 30 mins by UV-spectrophotometer analysis; assay type: subcellular
[2] = tested on: Staphylococcus saprophyticus; experiment: Bactericidal activity against Staphylococcus saprophyticus ATCC BAA-750 assessed as inhibition of bacterial growth incubated for 18 to 24 hrs; assay type: functional; conditions: time 18-24 hrs
[3] = tested on: Streptococcus mutans; experiment: Antibacterial activity against Streptococcus mutans UA159 assessed as inhibition of bacterial growth incubated for 18 to 24 hrs; assay type: functional; conditions: time 18-24 hrs
[4] = tested on: Staphylococcus epidermidis; experiment: Antibacterial activity against Staphylococcus epidermidis ATCC 12228 assessed as inhibition of bacterial growth incubated for 18 to 24 hrs; assay type: functional; conditions: time 18-24 hrs
[5] = tested on: Streptococcus mutans; experiment: Antibacterial activity against Streptococcus mutans ATCC 25175 assessed as inhibition of bacterial growth incubated for 18 to 24 hrs; assay type: functional; conditions: time 18-24 hrs
[6] = tested on: Escherichia coli; experiment: Antibacterial activity against Escherichia coli ATCC 25922 assessed as inhibition of bacterial growth incubated for 18 to 24 hrs; assay type: functional; conditions: time 18-24 hrs
[7] = tested on: Staphylococcus aureus; experiment: Antibacterial activity against Staphylococcus aureus ATCC 43300 assessed as inhibition of bacterial growth incubated for 18 to 24 hrs; assay type: functional; conditions: time 18-24 hrs
[8] = tested on: Staphylococcus aureus; experiment: Bactericidal activity against Staphylococcus aureus ATCC 43300 assessed as inhibition of bacterial growth incubated for 18 to 24 hrs; assay type: functional; conditions: time 18-24 hrs
[9] = tested on: Streptococcus pneumoniae; experiment: Bactericidal activity against Streptococcus pneumoniae ATCC 49619 assessed as inhibition of bacterial growth incubated for 18 to 24 hrs; assay type: functional; conditions: time 18-24 hrs
[10] = tested on: Streptococcus pneumoniae; experiment: Antibacterial activity against Streptococcus pneumoniae ATCC 49619 assessed as inhibition of bacterial growth incubated for 18 to 24 hrs; assay type: functional; conditions: time 18-24 hrs
[11] = tested on: Staphylococcus aureus; experiment: Bactericidal activity against Staphylococcus aureus ATCC 12600 assessed as inhibition of bacterial growth incubated for 18 to 24 hrs; assay type: functional; conditions: time 18-24 hrs
[12] = tested on: Staphylococcus aureus; experiment: Bactericidal activity against Staphylococcus aureus ATCC 6538p assessed as inhibition of bacterial growth incubated for 18 to 24 hrs; assay type: functional; conditions: time 18-24 hrs
[13] = Toxicity in Kunming mouse infected with Staphylococcus aureus ATCC 6538p assessed as animal survival rate 5 mg/kg, ip pre-infected with bacteria for 1 hr followed by compound administration and measured after 7 days; assay type: organism-based; conditions: in vivo, 168 h, time 7 day
[14] = tested on: Staphylococcus aureus; experiment: Antibacterial activity against Staphylococcus aureus ATCC 6538p assessed as inhibition of bacterial growth incubated for 18 to 24 hrs; assay type: functional; conditions: time 18-24 hrs
[15] = tested on: Staphylococcus epidermidis; experiment: Bactericidal activity against Staphylococcus epidermidis ATCC 12228 assessed as inhibition of bacterial growth incubated for 18 to 24 hrs; assay type: functional; conditions: time 18-24 hrs
[16] = tested on: Staphylococcus saprophyticus; experiment: Antibacterial activity against Staphylococcus saprophyticus ATCC BAA-750 assessed as inhibition of bacterial growth incubated for 18 to 24 hrs; assay type: functional; conditions: time 18-24 hrs
[17] = tested on: Staphylococcus aureus; experiment: Antibacterial activity against Staphylococcus aureus ATCC 12600 assessed as inhibition of bacterial growth incubated for 18 to 24 hrs; assay type: functional; conditions: time 18-24 hrs
[18] = tested on: Staphylococcus aureus; experiment: Bactericidal activity against Staphylococcus aureus assessed as inhibition of bacterial growth at 31.25 uM incubated for 120 mins; assay type: functional, organism-based
[19] = tested on: Staphylococcus aureus; experiment: Antivirulence activity against Staphylococcus aureus ATCC 6538p assessed as downregulation of RNAIII expression level at 2.5 uM measured for 28 passages by qRT-PCR analysis; assay type: functional, organism-based
[20] = Binding affinity to AgrC-I extra-loop-I (unknown origin) assessed as change in enthalpy incubated for 10 mins by isothermal titration calorimetry analysis
[21] = Binding affinity to AgrC-I extra-loop-II (unknown origin) assessed as change in enthalpy incubated for 10 mins by isothermal titration calorimetry analysis
[22] = Inhibition of quorum sensing system in Staphylococcus saprophyticus ATCC BAA-750 assessed as downregulation of RNAIII expression level at 1 to 100 uM incubated for 24 hrs by qRT-PCR analysis; conditions: dose 1-100 µM
[23] = tested on: Staphylococcus aureus; experiment: Inhibition of biofilm formation in Staphylococcus aureus incubated for 24 hrs by crystal violet staining based microscopic analysis; assay type: functional, organism-based
[24] = Binding affinity to AgrC-I extra-loop-III (unknown origin) assessed as dissociation constant incubated for 10 mins by isothermal titration calorimetry analysis
[25] = tested on: Erythrocyte; experiment: Hemolytic activity in rat RBC assessed as hemolysis measured after 20 hrs; assay type: toxicity, cell-based
[26] = organism: Homo sapiens; experiment: Binding affinity to AgrC-I extra-loop-I (unknown origin) assessed as gibbs free energy change incubated for 10 mins by isothermal titration calorimetry analysis
[27] = tested on: Staphylococcus aureus; experiment: Antivirulence activity against Staphylococcus aureus assessed as downregulation of psm-alpha expression level at 1 to 100 uM incubated for 24 hrs by qRT-PCR analysis; assay type: functional, organism-based; conditions: dose 1-100 µM
[28] = Inhibition of quorum sensing system in Staphylococcus aureus ATCC 6538p assessed as downregulation of RNAIII expression level incubated for 24 hrs by qRT-PCR analysis; conditions: dose 1-100 µM
[29] = Binding affinity to AgrC-I extra-loop-III (unknown origin) assessed as change in enthalpy incubated for 10 mins by isothermal titration calorimetry analysis
[30] = tested on: Staphylococcus aureus; experiment: Inhibition of biofilm formation in Staphylococcus aureus at 0.39 uM incubated for 24 hrs by crystal violet staining based analysis; assay type: functional, organism-based
[31] = tested on: RAW264.7; experiment: Cytotoxicity against mouse RAW264.7 cells assessed as cell viability upto 125 uM incubated for 48 hrs by MTT assay; assay type: functional, cell-based
[32] = organism: Homo sapiens; experiment: Binding affinity to AgrC-I extra-loop-II (unknown origin) assessed as gibbs free energy change incubated for 10 mins by isothermal titration calorimetry analysis
[33] = Binding affinity to AgrC-I extra-loop-I (unknown origin) assessed as dissociation constant incubated for 10 mins by isothermal titration calorimetry analysis
[34] = Binding affinity to AgrC-I extra-loop-II (unknown origin) assessed as dissociation constant incubated for 10 mins by isothermal titration calorimetry analysis
[35] = tested on: Staphylococcus aureus; experiment: Antivirulence activity against Staphylococcus aureus assessed as downregulation of RNAIII expression level at 1 to 100 uM incubated for 24 hrs by qRT-PCR analysis; assay type: functional, organism-based; conditions: dose 1-100 µM
[36] = tested on: Staphylococcus aureus; experiment: Inhibition of biofilm formation in Staphylococcus aureus at 0.78 to 1.56 uM incubated for 24 hrs by crystal violet staining based analysis; assay type: functional, organism-based; conditions: dose 0.78-1.56 µM
[37] = Inhibition of quorum sensing system in Staphylococcus epidermidis ATCC 12228 assessed as downregulation of RNAIII expression level at 1 to 100 uM incubated for 24 hrs by qRT-PCR analysis; conditions: dose 1-100 µM
[38] = tested on: RAW264.7; experiment: Cytotoxicity against mouse RAW264.7 cells assessed as cell viability incubated for 48 hrs by MTT assay; assay type: functional
[39] = tested on: Staphylococcus aureus; experiment: Antivirulence activity against Staphylococcus aureus assessed as downregulation of hla expression level at 1 to 100 uM incubated for 24 hrs by qRT-PCR analysis; assay type: functional, organism-based; conditions: dose 1-100 µM
[40] = organism: Homo sapiens; experiment: Binding affinity to AgrC-I extra-loop-III (unknown origin) assessed as gibbs free energy change incubated for 10 mins by isothermal titration calorimetry analysis

SMILES: CN[C@H](CC(C)C)C(=O)N[C@H]1C(=O)N[C@@H](CC(N)=O)C(=O)N[C@H]2C(=O)N[C@H]3C(=O)N[C@H](C(=O)N[C@H](C(=O)O)c4cc(O)cc(O)c4-c4cc3ccc4O)[C@H](O)c3ccc(c(Cl)c3)Oc3cc2cc(c3O[C@@H]2O[C@H](CO)[C@@H](O)[C@H](O)[C@H]2O[C@H]2C[C@](C)(N)[C@H](O)[C@H](C)O2)Oc2ccc(cc2Cl)[C@H]1O [VANCOMYCIN]
- Activity [1]: inactive
- MBC [2]: 0.39 µM (≈ 0.565 µg/mL)
- MIC [3]: > 100 µM
- MIC [4]: 0.39 µM (≈ 0.565 µg/mL)
- MIC [5]: > 100 µM
- MIC [6]: > 100 µM
- MIC [7]: 0.39 µM (≈ 0.565 µg/mL)
- MBC [8]: 0.39 µM (≈ 0.565 µg/mL)
- MBC [9]: 0.19 µM (≈ 0.275 µg/mL)
- MIC [10]: 0.19 µM (≈ 0.275 µg/mL)
- MBC [11]: 0.39 µM (≈ 0.565 µg/mL)
- MBC [12]: 0.39 µM (≈ 0.565 µg/mL)
- Activity [13]: 90%
- MIC [14]: 0.39 µM (≈ 0.565 µg/mL)
- MBC [15]: 0.39 µM (≈ 0.565 µg/mL)
- MIC [16]: 0.39 µM (≈ 0.565 µg/mL)
- MIC [17]: 0.39 µM (≈ 0.565 µg/mL)

SMILES: CC[C@H](C)[C@H](NC(C)=O)C(=O)N[C@@H](CC(N)=O)C(=O)N[C@H]1CCNC(=O)[C@H](CC(C)C)NC(=O)[C@H](CC(C)C)NC(=O)[C@H](Cc2ccccc2)NC(=O)[C@H](C)NC1=O (Ac-IN[Dab]AFLL; lactam 3-C)
- MIC [3]: > 100 µM
- MIC [4]: > 100 µM
- MIC [5]: > 100 µM
- Activity [18]: inactive
- MIC [6]: > 100 µM
- Activity [19]: Active
- MIC [7]: > 100 µM
- deltaH [20]: -1.43 kcal/mol
- deltaH [21]: -52.4 kcal/mol
- inhibition [22]: inactive
- inhibition [23]: Active
- Kd [24]: 137 nM
- Activity [25]: Toxic
- deltaG [26]: -16.4 kcal/mol
- MIC [10]: > 100 µM
- Activity [27]: Active
- inhibition [28]: Dose-Dependent Effect
- deltaH [29]: 0.085 kcal/mol
- inhibition [30]: Active
- Activity [31]: inactive
- deltaG [32]: -3.6 kcal/mol
- Kd [33]: 1 pM
- Kd [34]: 2.32 mM
- Activity [35]: Active
- inhibition [36]: Active
- inhibition [37]: inactive
- CC50 [38]: > 125 µM
- Activity [39]: Active
- MIC [14]: > 100 µM
- MIC [16]: > 100 µM
- MIC [17]: > 100 µM
- deltaG [40]: -9.36 kcal/mol
